How the values were obtained:
Assay type in all cases: in vivo
Echinochloa crus-galli = assay: Herbicidal effect on paddy field weeds of post-emergence stage (Post), Test Example 2; conditions: one-leaf stage, 1000 g/ha as active ingredient, examined after 21 days
How it was run: (§1)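 Scirpus juncoides and Echinochloa crus-galli sown in clay loam, with Lindernia procumbens seed in the soil cover, under 5 cm flooding in greenhouse. At one-leaf stage, 1000 g/ha active ingredient applied to pot water. Efficacy scored visually 0–5 against untreated plants at 21 days after treatment.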

Lindernia procumbens [1] = assay: as above; conditions: one-leaf stage, 1000 g/ha as active ingredient, examined after 21 days
How it was run: as §1

Scirpus juncoides [2] = assay: as above; conditions: one-leaf stage, 1000 g/ha as active ingredient, examined after 21 days
How it was run: as §1

Lindernia procumbens [3] = assay: Herbicidal efficacy on paddy field weeds of pre-emergence stage (Pre), Test Example 1; conditions: 1000 g/ha as active ingredient, examined after 21 days
How it was run: (§2)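 Clay-loam pots sown with Scirpus juncoides, covered with soil containing Lindernia procumbens seed, flooded to 5 cm. Next day formulated compound applied dropwise to water at 1000 g/ha a.i. Greenhouse-grown; growth inhibition versus untreated scored 0–5 after 21 days.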

Scirpus juncoides [4] = assay: as above; conditions: 1000 g/ha as active ingredient, examined after 21 days
How it was run: as §2

Row | Compound | Echinochloa crus-galli post (herbicidal effect) (Echinochloa crus-galli) | Lindernia procumbens post (herbicidal effect) (Lindernia procumbens [1]) | Scirpus juncoides post (herbicidal effect) (Scirpus juncoides [2]) | Lindernia procumbens pre (herbicidal effect) (Lindernia procumbens [3]) | Scirpus juncoides pre (herbicidal effect) (Scirpus juncoides [4])
1 | CCOC(=O)N(c1ccccc1CN1CCC(c2ccccc2C(F)(F)F)OC1=O)S(=O)(=O)C(F)(F)F (centres unmarked) [Compound 1-296] | 4 (90%-99% herbicidal effect, phytotoxicity) | 5 (100% herbicidal effect, phytotoxicity) | 4 (90%-99% herbicidal effect, phytotoxicity) | 5 (100% herbicidal effect, phytotoxicity) | 4 (90%-99% herbicidal effect, phytotoxicity)
2 | CC(C)COC(=O)N(c1ccccc1CN1CCC(C(F)(F)F)(C(F)(F)F)OC1=O)S(=O)(=O)C(F)(F)F [Compound 1-343] | 4 (90%-99% herbicidal effect, phytotoxicity) | 5 (100% herbicidal effect, phytotoxicity) | 4 (90%-99% herbicidal effect, phytotoxicity) | 5 (100% herbicidal effect, phytotoxicity) | 5 (100% herbicidal effect, phytotoxicity)
3 | CCOC(=O)N(c1ccccc1CN1CCC(C)(Cc2ccccc2F)OC1=O)S(=O)(=O)C(F)(F)F (racemic) [Compound 1-463] | 4 (90%-99% herbicidal effect, phytotoxicity) | 5 (100% herbicidal effect, phytotoxicity) | 4 (90%-99% herbicidal effect, phytotoxicity) | 5 (100% herbicidal effect, phytotoxicity) | 5 (100% herbicidal effect, phytotoxicity)
4 | CCC1(CC)CCN(Cc2ccccc2NS(=O)(=O)C(F)(F)F)C(=O)O1 [Compound 1-102] | 4 (90%-99% herbicidal effect, phytotoxicity) | 4 (90%-99% herbicidal effect, phytotoxicity) | 4 (90%-99% herbicidal effect, phytotoxicity) | 4 (90%-99% herbicidal effect, phytotoxicity) | 4 (90%-99% herbicidal effect, phytotoxicity)
5 | CCOC(=O)N(c1ccccc1CN1CC(C)(C)C(c2ccccc2)OC1=O)S(=O)(=O)C(F)(F)F (centres unmarked) [Compound 1-263] | 4 (90%-99% herbicidal effect, phytotoxicity) | 5 (100% herbicidal effect, phytotoxicity) | 4 (90%-99% herbicidal effect, phytotoxicity) | 5 (100% herbicidal effect, phytotoxicity) | 4 (90%-99% herbicidal effect, phytotoxicity)
6 | CCOC(=O)N(c1ccccc1CN1CCC(C)(C)OC1=O)S(=O)(=O)C(F)(F)F [Compound 1-47] | 4 (90%-99% herbicidal effect, phytotoxicity) | 4 (90%-99% herbicidal effect, phytotoxicity) | 4 (90%-99% herbicidal effect, phytotoxicity) | 4 (90%-99% herbicidal effect, phytotoxicity) | 4 (90%-99% herbicidal effect, phytotoxicity)
7 | CCC1(c2ccccc2)CCN(Cc2ccccc2NS(=O)(=O)C(F)(F)F)C(=O)O1 (centres unmarked) [Compound 1-316] | 4 (90%-99% herbicidal effect, phytotoxicity) | 5 (100% herbicidal effect, phytotoxicity) | 4 (90%-99% herbicidal effect, phytotoxicity) | 5 (100% herbicidal effect, phytotoxicity) | 4 (90%-99% herbicidal effect, phytotoxicity)
8 | CC1(C)CCN(Cc2ccccc2NS(=O)(=O)C(F)(F)F)C(=O)O1 [Compound 1-45] | 4 (90%-99% herbicidal effect, phytotoxicity) | 4 (90%-99% herbicidal effect, phytotoxicity) | 4 (90%-99% herbicidal effect, phytotoxicity) | 4 (90%-99% herbicidal effect, phytotoxicity) | 4 (90%-99% herbicidal effect, phytotoxicity)
9 | CCCOC(=O)N(c1ccccc1CN1CC(C)(C)COC1=O)S(=O)(=O)C(F)(F)F [Compound 1-26] | 4 (90%-99% herbicidal effect, phytotoxicity) | 4 (90%-99% herbicidal effect, phytotoxicity) | 4 (90%-99% herbicidal effect, phytotoxicity) | 4 (90%-99% herbicidal effect, phytotoxicity) | 4 (90%-99% herbicidal effect, phytotoxicity)
10 | CC(C)COC(=O)N(c1ccccc1CN1CCC(C)(C2(C)CC2)OC1=O)S(=O)(=O)C(F)(F)F (centres unmarked) [Compound 1-376] | 4 (90%-99% herbicidal effect, phytotoxicity) | 5 (100% herbicidal effect, phytotoxicity) | 4 (90%-99% herbicidal effect, phytotoxicity) | 5 (100% herbicidal effect, phytotoxicity) | 5 (100% herbicidal effect, phytotoxicity)
11 | CCOC(=O)N(c1ccccc1CN1CCC(c2ccccc2C)OC1=O)S(=O)(=O)C(F)(F)F (centres unmarked) [Compound 1-285] | 4 (90%-99% herbicidal effect, phytotoxicity) | 5 (100% herbicidal effect, phytotoxicity) | 4 (90%-99% herbicidal effect, phytotoxicity) | 5 (100% herbicidal effect, phytotoxicity) | 4 (90%-99% herbicidal effect, phytotoxicity)
12 | CC(C)COC(=O)N(c1ccccc1CN1CCC(C)(C(C)(C)C)OC1=O)S(=O)(=O)C(F)(F)F (centres unmarked) [Compound 1-332] | 4 (90%-99% herbicidal effect, phytotoxicity) | 5 (100% herbicidal effect, phytotoxicity) | 4 (90%-99% herbicidal effect, phytotoxicity) | 5 (100% herbicidal effect, phytotoxicity) | 5 (100% herbicidal effect, phytotoxicity)
13 | CCC1(C)CCN(Cc2ccccc2N(C(=O)OCC(C)C)S(=O)(=O)C(F)(F)F)C(=O)O1 (centres unmarked) [Compound 1-74] | 4 (90%-99% herbicidal effect, phytotoxicity) | 4 (90%-99% herbicidal effect, phytotoxicity) | 4 (90%-99% herbicidal effect, phytotoxicity) | 4 (90%-99% herbicidal effect, phytotoxicity) | 4 (90%-99% herbicidal effect, phytotoxicity)
14 | CC(C)COC(=O)N(c1ccccc1CN1CCC(c2ccccc2)(C2CCC2)OC1=O)S(=O)(=O)C(F)(F)F (centres unmarked) [Compound 1-211] | 4 (90%-99% herbicidal effect, phytotoxicity) | 4 (90%-99% herbicidal effect, phytotoxicity) | 4 (90%-99% herbicidal effect, phytotoxicity) | 4 (90%-99% herbicidal effect, phytotoxicity) | 4 (90%-99% herbicidal effect, phytotoxicity)
15 | COC(=O)N(c1ccccc1CN1CCC(C)COC1=O)S(=O)(=O)C(F)(F)F (racemic) [2-24] | 4 (90%-99% herbicidal effect, phytotoxicity) | 4 (90%-99% herbicidal effect, phytotoxicity) | 4 (90%-99% herbicidal effect, phytotoxicity) | 4 (90%-99% herbicidal effect, phytotoxicity) | 4 (90%-99% herbicidal effect, phytotoxicity)
16 | CCCCOC(=O)N(c1ccccc1CN1CC(C)(C)COC1=O)S(=O)(=O)C(F)(F)F [Compound 1-27] | 4 (90%-99% herbicidal effect, phytotoxicity) | 4 (90%-99% herbicidal effect, phytotoxicity) | 4 (90%-99% herbicidal effect, phytotoxicity) | 4 (90%-99% herbicidal effect, phytotoxicity) | 4 (90%-99% herbicidal effect, phytotoxicity)
17 | CC1(C2CC2)CCN(Cc2ccccc2NS(=O)(=O)C(F)(F)F)C(=O)O1 (centres unmarked) [Compound 1-125] | 4 (90%-99% herbicidal effect, phytotoxicity) | 4 (90%-99% herbicidal effect, phytotoxicity) | 4 (90%-99% herbicidal effect, phytotoxicity) | 4 (90%-99% herbicidal effect, phytotoxicity) | 4 (90%-99% herbicidal effect, phytotoxicity)
18 | CC(C)(C)COC(=O)N(c1ccccc1CN1CCC(C)(C2CCC2)OC1=O)S(=O)(=O)C(F)(F)F (centres unmarked) [Compound 1-388] | 5 (100% herbicidal effect, phytotoxicity) | 5 (100% herbicidal effect, phytotoxicity) | 4 (90%-99% herbicidal effect, phytotoxicity) | 5 (100% herbicidal effect, phytotoxicity) | 5 (100% herbicidal effect, phytotoxicity)
19 | CC(C)COC(=O)N(c1ccccc1CN1CCCCOC1=O)S(=O)(=O)C(F)(F)F [2-6] | 4 (90%-99% herbicidal effect, phytotoxicity) | 4 (90%-99% herbicidal effect, phytotoxicity) | 4 (90%-99% herbicidal effect, phytotoxicity) | 4 (90%-99% herbicidal effect, phytotoxicity) | 4 (90%-99% herbicidal effect, phytotoxicity)
